Reference: patent publication US11849742B2, “Tasteful natural sweetener and flavor” (priority 2018, dated 2023)
Blank lines part the entries; values can stand above or below the molecule they belong to.

Key:
[1] = non-sugar natural sweeteners of Momordica grosvenori juice or extract; cited from earlier work
[2] = Assay to test reducing power (iron-III reduction); details: iron-III reduction and radical scavenging (FIG. 49, FIG. 50); amino acids and Reb-A, 100° C., pH 7.8
Protocol: 0.2 M Sodium phosphate buffer, pH=6.6; 500 mg Potassium ferric(III)cyanide/50 mL water, 10% Trichloroacetic acid; 20 mg Iron-III-Chloride/20 mL water; Calibration samples were prepared with Ascorbic acid in a concentration of 0-100 μg/mL 0.2 M Sodium phosphate buffer, pH=6.6 (freshly prepared); as negative control sample water was used.
Samples in aqueous solution were used as such or diluted in 0.2 M Sodium phosphate buffer, pH=6.6.
A 1 mL sample (or calibration standard) was mixed with 1 mL 0.2 M Sodium phosphate buffer, pH=6.6 and 1 ml Potassium ferricyanide solution. The sample was incubated and protected from light at 50° C. for 20 min.
To the solution was added 1 mL Trichloroacetic acid with thorough mixing.
A 1 mL of the mixture was diluted with 1 ml H2O and 0.2 ml Iron-III-chloride and reacted for 10 minutes; The absorbance was then determined at 700 nm against H2O.
10 mM of amino acid and/or 10 mM sugar were dissolved in 10 ml 0.1 mM KH2PO4-buffer, pH=7.8. […]
1 ml sample (or calibration standard) solution) was mixed with 0.2 M Sodium phosphate buffer (pH=6.6) and 1 ml Potassium ferric(III)cyanide solution in water (1% w/v) and incubated at 50° C. for 20 minutes. […] The sample was incubated for 10 minutes and absorbance read at 700 nm against a water control. […]
Quantification was performed by linear regression of calibration test results for ascorbic acid. […]

[3] = Kinetics of reaction: degradation of Phe and Reb-A, Gluc, Xyl, Suc at various pH-conditions (HPLC/MS); assay type: physicochemical
Protocol: Quantitative evaluation was performed using external standardization.
Kinetics of Reaction in dependence of pH-conditions

Compound: C[C@H](CC[C@@H](O[C@@H]1O[C@H](CO[C@@H]2O[C@H](CO)[C@@H](O)[C@H](O)[C@H]2O)[C@@H](O)[C@H](O)[C@H]1O[C@@H]1O[C@H](CO)[C@@H](O)[C@H](O)[C@H]1O)C(C)(C)O)[C@H]1CC[C@@]2(C)[C@@H]3CC=C4[C@@H](CC[C@H](O[C@@H]5O[C@H](CO[C@@H]6O[C@H](CO)[C@@H](O)[C@H](O)[C@H]6O)[C@@H](O)[C@H](O)[C@H]5O)C4(C)C)[C@]3(C)[C@H](O)C[C@]12C [mogroside V]
- natural sweetness, times of that of sugar [1]: 256-344 times of that of sugar

Compound: C[C@H](CC[C@@H](O[C@@H]1O[C@H](CO)[C@@H](O)[C@H](O)[C@H]1O[C@@H]1O[C@H](CO)[C@@H](O)[C@H](O)[C@H]1O)C(C)(C)O)[C@H]1CC[C@@]2(C)[C@H]3CC=C4[C@@H](CC[C@H](O[C@@H]5O[C@H](CO[C@@H]6O[C@H](CO)[C@@H](O)[C@H](O)[C@H]6O)[C@@H](O)[C@H](O)[C@H]5O)C4(C)C)[C@]3(C)[C@H](O)C[C@]12C [mogroside IV]
- natural sweetness, times of that of sugar [1]: 126 times of that of sugar

Compound: C=C1C[C@@]23CC[C@H]4[C@@](C)(CCC[C@@]4(C)C(=O)O[C@@H]4O[C@H](CO)[C@@H](O)[C@H](O)[C@H]4O)[C@@H]2CC[C@]1(O[C@@H]1O[C@H](CO)[C@@H](O)[C@H](O[C@@H]2O[C@H](CO)[C@@H](O)[C@H](O)[C@H]2O)[C@H]1O[C@@H]1O[C@H](CO)[C@@H](O)[C@H](O)[C@H]1O)C3 [Reb-A, Rebaudioside A]
- anti-oxidant properties [2]: substantial anti-oxidant properties

Compound: OC[C@@H](O)[C@@H](O)[C@H](O)[C@H](O)CO [D-mannitol]
- natural sweetness, times of that of sugar [1]: 0.55-0.65 times of that of sugar

- % degradation ([3]; pH = 5.5): 3.65%
- % degradation ([3]; pH = 7.0): 4.6%
- % degradation ([3]; pH = 8.5): 7.62%
Compound: N[C@@H](CCC(=O)O)C(=O)O [Glu]
